From patent publication US20110015067A1, “Herbicidal Compositions Comprising Pyroxasulfone” (BASF SE, priority 2008, published 2011)
Where two headings read alike, the source gives them in different places.

Experiments:
Assay in all cases: post-emergence greenhouse test
Assay type in all cases: in vivo
SETFA (Setaria faberii) = details: Setaria faberi, use rate 25 g ai/ha, read-out: observed % activity
In short: (§1)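 Plants grown to 3–20 cm, then sprayed post-emergence with herbicides, solo or mixed, with or without safener, in water as carrier. Damage scored visually 0–100% versus untreated controls at 8 and/or 20 days after treatment.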

SETVI (Setaria viridis) = details: use rate 6.25 g ai/ha, read-out: observed % activity
In short: as §1

[1] = system: ALOMY (Alopecurus myosuroides); details: for observed activity in % destruction: 50 g ai/ha; for inhibition at 6.25 g/ha / inhibition at 25 g/ha / inhibition at 50 g/ha: Alopecurus myosuroides, read-out: observed % activity; for inhibition at 6.25 g/ha: use rate 6.25 g ai/ha; for inhibition at 25 g/ha: use rate 25 g ai/ha; for inhibition at 50 g/ha: use rate 50 g ai/ha
In short: as §1

`Cn1nc(C(F)(F)F)c(CS(=O)(=O)C2=NOC(C)(C)C2)c1OC(F)F` [pyroxasulfone, 3-[5-(difluoromethoxy)-1-methyl-3-(trifluoromethyl)pyrazol-4-ylmethylsulfonyl]-4,5-dihydro-5,5-dimethyl-1,2-oxazole] gave an inhibition at 25 g/ha (SETFA (Setaria faberii); 192 h, 8 DAT) of 55%, an inhibition at 25 g/ha (SETFA (Setaria faberii); 480 h, 20 DAT) of 90% and an inhibition at 6.25 g/ha (SETVI (Setaria viridis); 192 h, 8 DAT) of 40%. For the same molecule, the inhibition at 6.25 g/ha (SETVI (Setaria viridis); 480 h, 20 DAT) was 75%, the “observed activity in % destruction” value ([1]; 8 DAT) was 30% and the “observed activity in % destruction” value ([1]; 20 DAT) was 75%. The inhibition at 6.25 g/ha ([1]; 192 h, 8 DAT) was 20%, the inhibition at 25 g/ha ([1]; 192 h, 8 DAT) was 30% and the inhibition at 50 g/ha ([1]; 192 h, 8 DAT) was 30%. It also gave an inhibition at 6.25 g/ha ([1]; 480 h, 20 DAT) of 30%, an inhibition at 25 g/ha ([1]; 480 h, 20 DAT) of 55% and an inhibition at 50 g/ha ([1]; 480 h, 20 DAT) of 75%.
